Test results reported in ChEMBL document CHEMBL1132775, “N1-(Benzenesulfonyl)tryptamines as novel 5-HT6 antagonists” (Bioorg Med Chem Lett, 2000).

How the values were obtained:
[1] = biological target: T1, 5-hydroxytryptamine receptor 6 (Homo sapiens, UniProt P50406); test: Binding affinity against human 5-hydroxytryptamine 6 receptor stably transfected to HEK 293 human embryonic kidney cells using [3H]-lysergic acid diethylamide as radioligand; assay type: cell-based, HEK293
[2] = biological target: T1, 5-hydroxytryptamine receptor 6
[3] = biological target: 5-hydroxytryptamine receptor 7 (Homo sapiens, UniProt P34969); test: Compound was evaluated for its binding affinity for human 5-hydroxytryptamine 7 receptor
[4] = biological target: T2, 5-hydroxytryptamine receptor 2C (Rattus norvegicus, UniProt P08909); test: Compound was evaluated for its binding affinity for rat 5-hydroxytryptamine 2C receptor
T2 sequence (P08909 whole entry): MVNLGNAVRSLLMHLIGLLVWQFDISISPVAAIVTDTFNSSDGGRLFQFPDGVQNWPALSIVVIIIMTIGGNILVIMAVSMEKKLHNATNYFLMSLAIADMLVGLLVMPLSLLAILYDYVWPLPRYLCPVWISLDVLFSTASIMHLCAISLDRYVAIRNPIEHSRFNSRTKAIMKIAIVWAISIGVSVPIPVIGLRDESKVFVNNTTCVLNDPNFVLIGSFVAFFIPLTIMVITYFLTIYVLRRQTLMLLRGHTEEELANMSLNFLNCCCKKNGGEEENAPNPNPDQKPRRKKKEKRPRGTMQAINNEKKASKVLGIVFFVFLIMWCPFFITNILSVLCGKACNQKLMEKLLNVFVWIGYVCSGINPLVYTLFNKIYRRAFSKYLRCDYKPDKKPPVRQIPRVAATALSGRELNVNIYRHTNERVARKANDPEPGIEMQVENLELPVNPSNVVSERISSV

[5] = Compound was evaluated for its binding affinity for human 5-hydroxytryptamine 3 receptor
[6] = biological target: 5-hydroxytryptamine receptor 1B (Homo sapiens, UniProt P28222); test: Compound was evaluated for its binding affinity for human 5-hydroxytryptamine 1B receptor
[7] = biological target: 5-hydroxytryptamine receptor 1E (Homo sapiens, UniProt P28566); test: Compound was evaluated for its binding affinity for human 5-hydroxytryptamine 1E receptor
[8] = biological target: 5-hydroxytryptamine receptor 2A (Rattus norvegicus, UniProt P14842); test: Compound was evaluated for its binding affinity for rat 5-hydroxytryptamine 2A receptor
Sequence of 5-hydroxytryptamine receptor 2A (P14842 whole entry): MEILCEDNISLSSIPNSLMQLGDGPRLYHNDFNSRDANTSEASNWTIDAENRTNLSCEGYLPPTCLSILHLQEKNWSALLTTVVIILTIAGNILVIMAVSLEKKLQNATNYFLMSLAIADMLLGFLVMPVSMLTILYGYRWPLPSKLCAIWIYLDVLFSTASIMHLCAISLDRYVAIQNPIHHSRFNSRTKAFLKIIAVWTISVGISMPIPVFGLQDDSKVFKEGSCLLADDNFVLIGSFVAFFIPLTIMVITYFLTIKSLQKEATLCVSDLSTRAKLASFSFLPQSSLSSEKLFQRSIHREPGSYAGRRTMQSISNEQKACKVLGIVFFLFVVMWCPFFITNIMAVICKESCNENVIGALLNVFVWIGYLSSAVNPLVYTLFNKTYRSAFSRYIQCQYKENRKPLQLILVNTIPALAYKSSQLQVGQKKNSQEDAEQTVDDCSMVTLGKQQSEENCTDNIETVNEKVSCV

T1 sequence (P50406 whole entry): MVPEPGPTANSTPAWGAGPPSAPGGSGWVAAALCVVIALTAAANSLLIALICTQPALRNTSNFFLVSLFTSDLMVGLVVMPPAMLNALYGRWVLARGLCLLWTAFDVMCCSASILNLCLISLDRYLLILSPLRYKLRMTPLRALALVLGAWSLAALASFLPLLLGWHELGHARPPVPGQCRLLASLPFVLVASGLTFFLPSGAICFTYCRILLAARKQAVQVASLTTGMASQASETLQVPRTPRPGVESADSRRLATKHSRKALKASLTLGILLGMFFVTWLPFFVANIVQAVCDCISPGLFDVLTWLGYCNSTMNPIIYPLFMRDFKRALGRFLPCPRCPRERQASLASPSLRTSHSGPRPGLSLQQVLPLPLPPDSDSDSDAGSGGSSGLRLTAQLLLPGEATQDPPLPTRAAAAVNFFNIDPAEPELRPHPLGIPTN
Sequence of 5-hydroxytryptamine receptor 7 (P34969 whole entry): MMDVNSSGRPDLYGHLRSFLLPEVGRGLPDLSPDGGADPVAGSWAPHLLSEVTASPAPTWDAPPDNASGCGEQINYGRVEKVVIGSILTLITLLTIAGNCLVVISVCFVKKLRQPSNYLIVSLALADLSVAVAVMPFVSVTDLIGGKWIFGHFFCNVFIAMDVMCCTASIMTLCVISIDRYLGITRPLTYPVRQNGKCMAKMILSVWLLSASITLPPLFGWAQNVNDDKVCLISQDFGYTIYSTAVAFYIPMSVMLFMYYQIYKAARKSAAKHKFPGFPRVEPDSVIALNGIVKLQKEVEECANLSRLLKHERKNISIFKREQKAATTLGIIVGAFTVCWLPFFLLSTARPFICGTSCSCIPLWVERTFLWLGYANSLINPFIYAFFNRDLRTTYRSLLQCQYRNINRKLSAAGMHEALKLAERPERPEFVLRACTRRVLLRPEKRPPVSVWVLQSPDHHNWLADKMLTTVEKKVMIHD
Sequence of 5-hydroxytryptamine receptor 1B (P28222 whole entry): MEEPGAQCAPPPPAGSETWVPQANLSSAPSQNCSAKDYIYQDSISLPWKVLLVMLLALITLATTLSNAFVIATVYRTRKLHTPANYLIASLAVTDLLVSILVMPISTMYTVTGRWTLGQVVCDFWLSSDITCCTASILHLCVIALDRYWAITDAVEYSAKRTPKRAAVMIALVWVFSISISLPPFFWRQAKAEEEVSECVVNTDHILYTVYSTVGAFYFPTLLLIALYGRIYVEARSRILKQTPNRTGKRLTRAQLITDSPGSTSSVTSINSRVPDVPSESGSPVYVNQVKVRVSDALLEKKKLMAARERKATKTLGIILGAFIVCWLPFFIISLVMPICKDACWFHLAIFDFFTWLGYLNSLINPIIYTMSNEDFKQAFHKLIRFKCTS
Sequence of 5-hydroxytryptamine receptor 1E (P28566 whole entry): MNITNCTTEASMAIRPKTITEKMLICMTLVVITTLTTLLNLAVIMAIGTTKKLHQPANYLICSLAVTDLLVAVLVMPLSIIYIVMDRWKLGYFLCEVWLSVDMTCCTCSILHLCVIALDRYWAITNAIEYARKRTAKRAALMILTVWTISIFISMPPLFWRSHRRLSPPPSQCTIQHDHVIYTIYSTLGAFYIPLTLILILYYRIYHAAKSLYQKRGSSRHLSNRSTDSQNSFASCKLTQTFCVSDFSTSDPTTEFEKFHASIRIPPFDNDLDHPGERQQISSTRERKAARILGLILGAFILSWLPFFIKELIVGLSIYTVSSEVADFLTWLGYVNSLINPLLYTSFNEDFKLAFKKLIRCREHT

| SMILES | Ki [1] [nM] | also measured |
| --- | --- | --- |
| COc1ccc(OC)c(S(=O)(=O)n2cc(CCN(C)C)c3ccc(OC)cc32)c1 | 9.5 | – |
| COc1ccc2c(c1)c(CCN(C)C)cn2S(=O)(=O)c1ccccc1 | 2.3 | pA2 [2]: 8.88; Ki [3]: 600 nM; Ki [4]: 23 nM; Ki [5]: 2390 nM; Ki [6]: 9210 nM; Ki [7]: 4220 nM; Ki [8]: 130 nM |
| COc1ccc(S(=O)(=O)n2cc(CCN(C)C)c3cc(OC)ccc32)cc1 | 8 | – |
| COc1ccc2c(c1)c(CCN(C)C)cn2S(=O)(=O)c1ccc(Cl)cc1 | 3.1 | – |
| COc1ccc(OC)c(S(=O)(=O)n2cc(CCN(C)C)c3cc(OC)ccc32)c1 | 1.3 | – |
| COc1ccc(OC)c(S(=O)(=O)n2cc(CCN(C)C)c3cccc(OC)c32)c1 | 183 | – |
| COc1ccc2c(c1)c(CCN(C)C)cn2S(=O)(=O)c1ccc2ccccc2c1 | 1.6 | – |
| COc1ccc(S(=O)(=O)n2cc(CCN(C)C)c3cccc(OC)c32)cc1 | 93 | – |
| COc1cccc2c(CCN(C)C)cn(S(=O)(=O)c3ccc4ccccc4c3)c12 | 5 | – |
| COc1ccc(OC)c(S(=O)(=O)n2cc(CCN(C)C)c3c(OC)cccc32)c1 | 7.4 | – |
| COc1cccc2c(CCN(C)C)cn(S(=O)(=O)c3ccc(Cl)cc3)c12 | 45 | – |
| COc1ccc2c(c1)c(CCN(C)C)cn2S(=O)(=O)c1cccc2ccccc12 | 0.9 | – |
